In brackets after ≈: the same amount, converted by molar mass.
Tests used:
[1] = CLND Solubility Assay; format: physicochemical
Procedure: Chemiluminescent nitrogen detection (CLND) method oxidized the analyte to nitrogen oxide that reacted with ozone to provide a photon of light and was a measure of how much compound was in solution. Compounds must contain nitrogens for this experiment. Nitrogen impurities present in the compound will cause falsely high results. • 1. Compound concentration tested was 35 μM in 10 mM phosphate buffer, 7.2. • 2. Compounds were tested in triplicate. • 3. Compound concentration was determined by comparing readings to a caffeine standard curve. One standard curve was run before and after every test plate. For 3 test plates, four standard curves were generated.
Experimental Procedure: • 1. 5 μl of 5 mM test compound in DMSO was added to three adjacent wells in a plate. • 2. 695 μl of 10 mM phosphate buffer, pH 7.2, was added to each well. • 3. The plates were sealed. • 4. The plates were allowed to sonicate for 1 hour. • 5. The plates were shook on a plate orbital shaker for up to 6 hours. • 6. The plates were spinned at 5000 rpm (6000×G) overnight. • 7. Standard curves were prepared by adding 5 μl of stock solutions to wells according to Caffeine Concentrations for Standard Curve table below. • 8. Buffer (10 mM phosphate buffer, pH 7.2, 695 μl) was added. • 9. The plates were sealed. • 10. The plates were loaded onto a TOC/CLND. • 11. The results were analyzed after the run was completed.
The solubility was determined by comparing the reading generated by analysis of the sample to the standard curve. The value was then divided by the number of nitrogens contained in the compound. Corrections for impurities during the synthesis were included in the number of nitrogens. The resulting value was the reported solubility.

[2] = molecular target: T1, cKIT (Homo sapiens, UniProt P10721); assay: HTRF in vitro kinase assay, cKIT; format: biochemical; details: 1 mM ATP
T1 construct: GST
T1 sequence (P10721 544-976 limits assumed): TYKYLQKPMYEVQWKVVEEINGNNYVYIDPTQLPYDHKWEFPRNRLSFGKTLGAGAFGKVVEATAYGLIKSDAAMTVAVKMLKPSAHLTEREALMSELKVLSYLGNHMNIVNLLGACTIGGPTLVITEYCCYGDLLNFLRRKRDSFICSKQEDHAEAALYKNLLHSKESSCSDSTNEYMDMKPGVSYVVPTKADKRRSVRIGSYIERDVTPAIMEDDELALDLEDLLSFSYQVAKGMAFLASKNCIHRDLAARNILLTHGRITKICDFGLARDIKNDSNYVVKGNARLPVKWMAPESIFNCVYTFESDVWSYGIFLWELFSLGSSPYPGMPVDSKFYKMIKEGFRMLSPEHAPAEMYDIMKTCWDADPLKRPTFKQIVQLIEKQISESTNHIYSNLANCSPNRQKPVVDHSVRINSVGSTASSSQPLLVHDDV
Procedure: (§1) To determine the activity of the various kinases, a homogenous time-resolved fluorescence (HTRF) in vitro kinase assay was used. (Mathis, G., HTRF(R) Technology. J Biomol Screen, 1999. 4(6): p. 309-314; Alfred J. Kolb, Paul V. Kaplita, David J. Hayes, Young-Whan Park, Christine Pernell, John S. Major and Gerard Mathis, Drug Discovery Today, 1998, 3, 333-342.)
For example for KDR, cKIT, FLT1, CSF1R and FTL3, purified enzyme was mixed with 0.5 μM N-biotinylated substrate (Biotin-Ahx-[…]-amide (SEQ. ID. 1)), various concentrations of inhibitor in reaction buffer (50 mM HEPES, pH 7.1, 10 mM MgCl2, 2 mM MnCl2, 0.1% BSA and 1 mM DTT, 40 μL final volume), ATP (1 mM final conc.) in a black 384-well plate. After 60 minutes incubation at room temperature, the reaction was quenched by addition of a buffered EDTA solution (final approximate concentrations: 30 mM EDTA, 0.1% BSA, 0.1% Triton X-100 and 0.24M KF) and a solution of revelation agents (to give 0.084 ng/well streptavidin-XL-665 (Cis-Bio) and 6.5 ng/well antiphsophotyrosine mAb PT66-K Europium kryptate) was added to the reaction mixture. The quenched reaction was allowed to stand at room temperature for 3 hours and was then read in a time-resolved fluorescence detector (InVision, Perkin-Elmer) at 620 nm and 665 nm sequentially with excitation. The ratio between the signal of 620 nm and 665 nm was used in the calculation of the IC50.

[3] = molecular target: T2, KDR (Homo sapiens, UniProt P35968); assay: HTRF in vitro kinase assay, KDR; format: biochemical; details: 1 mM ATP
T2 construct: KDR 789- 1354; His6 (N)
T2 sequence (P35968 789-1354): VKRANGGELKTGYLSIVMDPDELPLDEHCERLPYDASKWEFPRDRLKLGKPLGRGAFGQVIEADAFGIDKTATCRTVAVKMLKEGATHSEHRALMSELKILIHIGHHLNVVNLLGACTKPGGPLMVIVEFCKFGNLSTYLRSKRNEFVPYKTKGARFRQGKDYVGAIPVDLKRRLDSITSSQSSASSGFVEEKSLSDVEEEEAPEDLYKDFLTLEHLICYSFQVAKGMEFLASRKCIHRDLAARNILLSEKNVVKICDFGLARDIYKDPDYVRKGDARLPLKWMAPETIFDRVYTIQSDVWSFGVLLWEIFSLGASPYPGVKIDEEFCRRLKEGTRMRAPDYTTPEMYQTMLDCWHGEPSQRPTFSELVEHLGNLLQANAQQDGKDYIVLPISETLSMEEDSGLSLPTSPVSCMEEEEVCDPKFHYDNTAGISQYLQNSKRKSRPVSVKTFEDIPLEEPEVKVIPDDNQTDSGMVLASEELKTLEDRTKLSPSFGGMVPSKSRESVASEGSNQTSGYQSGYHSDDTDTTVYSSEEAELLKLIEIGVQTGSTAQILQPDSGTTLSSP
Procedure: as §1
For example for KDR, cKIT, FLT1, CSF1R and FTL3, purified enzyme was mixed with 0.5 μM N-biotinylated substrate (Biotin-Ahx-[…]-amide (SEQ. ID. 1)), various concentrations of inhibitor in reaction buffer (50 mM HEPES, pH 7.1, 10 mM MgCl2, 2 mM MnCl2, 0.1% BSA and 1 mM DTT, 40 μL final volume), ATP (1 mM final conc.) in a black 384-well plate. […] The quenched reaction was allowed to stand at room temperature for 3 hours and was then read in a time-resolved fluorescence detector (InVision, Perkin-Elmer) at 620 nm and 665 nm sequentially with excitation. The ratio between the signal of 620 nm and 665 nm was used in the calculation of the IC50.

[4] = molecular target: T3, CYP3A4 (Homo sapiens, UniProt P08684); assay: CYP 3A4 Assay (Luc, luminescence, human liver microsomes); format: in vitro ADME; details: human liver microsomes 0.4 mg/mL, substrate LUC-LIPA
T3 construct: The incubations consisted of human liver microsomal protein at 0.4 mg/ml; from tissue; host or cells: human liver microsomes
T3 sequence (P08684 whole entry): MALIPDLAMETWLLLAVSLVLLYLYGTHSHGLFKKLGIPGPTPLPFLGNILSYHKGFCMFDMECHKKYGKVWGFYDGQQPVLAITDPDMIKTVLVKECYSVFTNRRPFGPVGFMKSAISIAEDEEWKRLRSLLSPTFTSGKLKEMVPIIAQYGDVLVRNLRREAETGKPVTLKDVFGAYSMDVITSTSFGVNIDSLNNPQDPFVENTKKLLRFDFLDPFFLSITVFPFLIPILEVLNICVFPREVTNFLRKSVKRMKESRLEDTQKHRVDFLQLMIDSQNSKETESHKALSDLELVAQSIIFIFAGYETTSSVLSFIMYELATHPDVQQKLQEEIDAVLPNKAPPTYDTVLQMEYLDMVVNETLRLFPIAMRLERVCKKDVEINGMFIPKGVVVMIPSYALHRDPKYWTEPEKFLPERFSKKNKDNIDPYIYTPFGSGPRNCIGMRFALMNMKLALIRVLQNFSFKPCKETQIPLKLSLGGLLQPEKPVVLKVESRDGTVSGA
Procedure: Each assay was preformed in ½ well plates. Test compounds were examined at six concentrations in DMSO that were serial diluted to: 2, 0.6, 0.2, 0.07, 0.02, and 0.007 mM (from left to right) and at 100×; 0.5 ul of these dilutions were added to two empty assay plates (resulting in final assay concentrations of 20, 6, 2, 0.7, 0.2, and 0.07 uM. The control and vehicle were added to the plate at 100× with the same dilution scheme.
The incubations consisted of human liver microsomal protein at 0.4 mg/ml in 100 mM KPO4 buffer, 125 uM NADPH and Regeneration mix in phosphate buffer at pH 7.4.
CYP3A4 requires a pre-incubation using the following recipe:
• CYP3A4—5 μM LUC-LIPA in 100 mM phosphate buffer pH 7.4 • Assay Procedure for CYP3A4: • 1. 40 uL of the Pre-incubation Mixture was added to all wells of the assay plates. • 2. Plates were pre-incubated for 10 minutes at 37° C., with shaking or rocking. (No pre-read is necessary for the luminescence assays CYP2C9 and CYP3A4). • 3. 10 μL of Substrate Solution was added to all wells of the assay plates. • 4. Plates were incubated for an additional 25 minutes at 37° C., with shaking or rocking. • 5. added 50 μl of stop/developer from respective kits, and incubated for 20 minutes to 2 hours with shaking at room temperature prior to reading. […]

CNC(=O)c1cnc(N)c2c(-c3ccc(NC(=O)Nc4cccc(C)c4)cc3)csc12 [Example 2, 4-amino-N-methyl-3-(4-{[(3-methylphenyl)carbamoyl]amino}phenyl)thieno[3,2-c]pyridine-7-carboxamide]
solubility ([1]; aqueous buffer, kinetic from dmso stock, 35 μM compound in 10 mM phosphate buffer, pH 7.2): 6.03 µM (≈ 2.6 µg/mL) | aqueous solubility, in words ([1]; comment on Table 5): extremely low aqueous solubility | IC50 [2]: 6 nM | IC50 [3]: 2 nM | IC50 [4]: > 20000 nM
